Values quoted from earlier work, collected in patent publication US11066384B2, “Crystalline forms of ARN-509, preparation method and use thereof” (Crystal Pharmaceutical (Suzhou) Co., Ltd., priority 2018, dated 2021).

How the values were obtained:
[1] = low solubility and high permeability; cited from earlier work
[2] = tested on: prostate cancer; details: clinical trials; cited from earlier work

SMILES | BCS class [1] | Share of patients in whom the drug is effective [2]
CNC(=O)c1ccc(N2C(=S)N(c3cnc(C#N)c(C(F)(F)F)c3)C(=O)C23CCC3)cc1F [ARN-509, 4-[7-(6-cyano-5-trifluoromethylpyridin-3-yl)-8-oxo-6-thioxo-5,7-diazaspiro[3.4]oct-5-yl]-2-fluoro-N-methylbenzamide] | BCS II | –
CNC(=O)c1ccc(N2C(=S)N(c3ccc(C#N)c(C(F)(F)F)c3)C(=O)C2(C)C)cc1F [Enzalutamide] | – | about 70%
